For 14 compounds, IC50 and melting point results are on record in US7638521B2, “3-guanidinocarbonyl-1-heteroaryl-indole derivatives, preparation process, their use as medicaments, and pharmaceutical compositions comprising them” (sanofi-aventis Deutschland GmbH, priority 2002, dated 2009).

Each structure is given as a SMILES string. Structures can show the parent of a compound that is named as a salt.

Series [1] concerns the target T1, NHE-1 subtype (Homo sapiens, UniProt P19634).
T1 construct: expressed in transfected cells; host or cells: LAP-1 (parental line without endogenous NHE activity), G418 selection
The series is described as follows: NHE inhibition FLIPR test (intracellular pH recovery, BCECF) in transfected LAP-1 cells. The series is classed as cell-based. The note with it: transfected LAP-1 cell line expressing NHE-1 subtype, pHi recovery after acidification, read-out: IC50 (NHE1). The procedure:
The NHE inhibitory activities (IC50 values) of the compounds according to the invention were determined by a FLIPR test. The test is performed in the FLIPR (Fluorescent Imaging Plate Reader) equipped with clear-bottomed and black-walled 96-well microtitration plates. […] The growth medium for the transfected cells (Iscove+10% foetal calf serum) also comprises G418 as selection antibiotic to ensure the presence of transfected sequences. The actual test begins by eliminating the growth medium and adding 100 μl of loading buffer per well (5 μM of BCECF-AM [2′,7′-bis(2-carboxyethyl)-5-(6)-carboxyfluoresceine acetoxymethyl ester] in 20 mM of NH4Cl, 115 mM of choline chloride, 1 mM of CaCl2, 5 mM of KCl, 20 mM of HEPES and 5 mM of glucose; pH 7.4 (adjusted with KOH). The cells are then incubated for 20 minutes at 37° C. This incubation results in the loading of the fluorescent dye into the cells, the fluorescence intensity of which depends on the pHi, and on the NH4Cl, which results in a slight basification of the cells. The precursor BCECF-AM, a non-fluorescent dye, is, as an ester, capable of crossing the membrane. The actual dye, which is incapable of crossing the membrane, is released inside the cell by esterases. After this 20-minute incubation, the loading buffer, which comprises NH4Cl and free BCECF-AM, is removed by washing three times in the cell washing device (Tecan Columbus), each wash being performed with 400 μl of washing buffer (133.8 mM of choline chloride, 4.7 mM of KCl, 1.25 mM of MgCl2, 1.25 mM of CaCl2, 0.97 mM of K2HPO4, 0.23 mM of KH2PO4, 5 mM of HEPES and 5 mM of glucose; pH 7.4 (adjusted with KOH)). The residual volume remaining in the wells is 90 μl (possibly between 50 and 125 μl). This washing step removes the free BCECF-AM and results in an intracellular acidification (pHi of 6.3-6.4) due to the removal of the external ammonium ions. As the equilibrium of the intracellular ammonium with the aqueous ammonia and the protons, by removal of the extracellular ammonium and by the subsequent immediate crossing of the aqueous ammonia across the cell membrane, is disrupted, the washing process results in intracellular protons remaining, which is the cause of the intracellular acidification. This acidification can result finally in the death of the cells if it lasts long enough. It is important here for the washing buffer to be free of sodium (<1 mM), otherwise the extracellular sodium ions would result in an immediate increase in the pHi on account of the activity of the cloned NHE isoforms. It is also important for all the buffers used (loading buffer, washing buffer and regeneration buffer) not to contain any HCO3-ions, otherwise the presence of bicarbonate would result in the activation of bicarbonate-dependent systems that disrupt the pHi regulation, which systems are contained in the LAP-1 parental cell line. The microtiter plates containing acidified cells are then transferred (up to 20 minutes after the acidification) to the FLIPR. In the FLIPR, the intracellular fluorescent dye is activated with light of a wavelength of 488 nm, which is generated by an argon laser, and the measuring parameters (laser power, illumination time and diaphragm of the […] camera integrated into the FLIPR) are chosen such that the average value of the fluorescent signal per well is between 30,000 and 35,000 relative fluorescence units. The actual measurement in the FLIPR starts with a photograph being taken by the CCD camera every two seconds under software control. After 10 seconds, the increase in the intracellular pH is initiated by adding 90 μl of regeneration buffer (133.8 mM of NaCl, 4.7 mM of KCl, 1.25 mM of MgCl2, 1.25 mM of CaCl2, 0.97 mM of K2HPO4, 0.23 mM of KH2PO4, 10 mM of HEPES and 5 mM of glucose; pH 7.4 (adjusted with NaOH)) using a 96-well pipette device incorporated into the FLIPR. Some wells, to which is added pure regeneration buffer, serve as positive controls (100% NHE activity). […]

T1 sequence (P19634 whole entry): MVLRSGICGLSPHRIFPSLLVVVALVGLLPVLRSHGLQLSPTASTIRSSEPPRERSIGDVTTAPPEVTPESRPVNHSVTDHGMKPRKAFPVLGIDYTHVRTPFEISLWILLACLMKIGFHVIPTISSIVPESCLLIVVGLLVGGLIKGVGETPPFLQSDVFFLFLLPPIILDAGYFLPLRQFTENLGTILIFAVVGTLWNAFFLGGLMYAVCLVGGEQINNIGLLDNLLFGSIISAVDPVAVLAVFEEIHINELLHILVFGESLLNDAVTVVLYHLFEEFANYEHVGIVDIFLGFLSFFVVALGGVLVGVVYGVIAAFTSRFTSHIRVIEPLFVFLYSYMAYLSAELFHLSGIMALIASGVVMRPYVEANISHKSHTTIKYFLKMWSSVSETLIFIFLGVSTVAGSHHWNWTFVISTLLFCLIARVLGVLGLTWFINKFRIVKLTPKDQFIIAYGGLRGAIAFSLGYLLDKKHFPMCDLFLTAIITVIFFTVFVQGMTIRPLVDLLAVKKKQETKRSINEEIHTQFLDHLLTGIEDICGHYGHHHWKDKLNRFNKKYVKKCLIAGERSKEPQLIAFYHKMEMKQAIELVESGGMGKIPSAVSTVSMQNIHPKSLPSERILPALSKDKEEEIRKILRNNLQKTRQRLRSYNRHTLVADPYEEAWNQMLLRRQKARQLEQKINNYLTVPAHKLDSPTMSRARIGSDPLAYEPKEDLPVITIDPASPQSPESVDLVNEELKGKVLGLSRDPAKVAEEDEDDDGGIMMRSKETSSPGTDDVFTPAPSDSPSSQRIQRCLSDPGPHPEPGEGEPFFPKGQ

Take `Cl.N=C(N)NC(=O)c1cn(-c2ccnc3ccc(C(F)(F)F)cc23)c2ccccc12` [Example 2, 3-Guanidinocarbonyl-1-(6-(trifluoromethyl)quinol-4-yl)-1H-indole hydrochloride]: the melting point (usually the temperature of the solid-liquid transition) amounted to 260 °C. In series [1], the IC50 (commonly the point on the concentration scale where inhibition reaches its midpoint) amounted to 220 nM.
The corresponding values for `Cl.Cn1ccc2c(-n3cc(C(=O)NC(=N)N)c4ccccc43)ncnc21` [Example 7, 3-Guanidinocarbonyl-1-(7-methyl-7H-pyrrolo[2,3-d]pyrimidin-4-yl)-1H-indole hydrochloride] are 244 °C and 1.2 nM.
The corresponding values for `Cl.N=C(N)NC(=O)c1cn(-c2ccnc3cc(C(F)(F)F)ccc23)c2ccccc12` [Example 3, 3-Guanidinocarbonyl-1-(7-(trifluoromethyl)quinol-4-yl)-1H-indole hydrochloride] are 238 °C and 250 nM.
In turn, `Cl.N=C(N)NC(=O)c1cn(-c2cc(C(F)(F)F)nc3ccccc23)c2ccccc12` [Example 1, 3-Guanidinocarbonyl-1-(2-(trifluoromethyl)quinol-4-yl)-1H-indole hydrochloride] gave a melting point of 216 °C. The IC50 in series [1] was found to be 2360 nM.
The corresponding values for `COc1ccc2c(-n3cc(C(=O)NC(=N)N)c4ccccc43)ccnc2c1.Cl` [Example 6, 3-Guanidinocarbonyl-1-(7-methoxyquinol-4-yl)-1H-indole hydrochloride] are 266 °C and 240 nM.
Turning to `NC(N)=NC(=O)c1cn(-c2ccnc3c(F)cccc23)c2ccccc12` [Example 13, N-[1-(8-Fluoro-quinolin-4-yl)-1H-indole-3-carbonyl]-guanidine trifluoroacetate], the half-inhibitory concentration (IC50) in series [1] was 2.5 nM.
Still for that read-out and setting: with `COc1ccc2c(c1)c(C(=O)N=C(N)N)c(C)n2-c1ccnc2cc(Cl)ccc12` [Example 10, N-[1-(7-Chloro-quinolin-4-yl)-5-methoxy-2-methyl-1H-indole-3-carbonyl]-guanidine trifluoroacetate] the figure was 3230 nM; with `Cc1cc(-n2cc(C(=O)N=C(N)N)c3ccccc32)c2ccccc2n1` [Example 8, N-[1-(2-Methyl-quinolin-4-yl)-1H-indole-3-carbonyl]-guanidine trifluoroacetate], 7.2 nM.
As to `NC(N)=NC(=O)c1cn(-c2ccnc3ccc(F)cc23)c2ccccc12` [Example 11, N-[1-(6-Fluoro-quinolin-4-yl)-1H-indole-3-carbonyl]-guanidine trifluoroacetate], the concentration for half-maximal inhibition (IC50) in series [1] was 10 nM.
Consider `COc1ccc2c(c1)c(C(=O)N=C(N)N)c(C)n2-c1ccnc2ccc(F)cc12` [Example 12, N-[1-(6-Fluoro-quinolin-4-yl)-5-methoxy-2-methyl-1H-indole-3-carbonyl]-guanidine trifluoroacetate], for which the half-maximal inhibitory concentration (IC50) in series [1] worked out at 2640 nM.
`COc1ccc2nccc(-n3cc(C(=O)NC(=N)N)c4ccccc43)c2c1.Cl` [Example 5, 3-Guanidinocarbonyl-1-(6-methoxyquinol-4-yl)-1H-indole hydrochloride] yielded a melting point of 266 °C. In series [1], the IC50 came to 120 nM.
For `COc1ccc2c(c1)c(C(=O)N=C(N)N)c(C)n2-c1ncnc2ccc(Cl)cc12` [Example 14, N-[1-(6-Chloro-quinazolin-4-yl)-5-methoxy-2-methyl-1H-indole-3-carbonyl]-guanidine trifluoroacetate], the IC50 in series [1] turned out to be 2560 nM.
Consider `NC(N)=NC(=O)c1cn(-c2ccnc3cc(Cl)ccc23)c2ccccc12` [Example 9, N-[1-(7-Chloro-quinolin-4-yl)-1H-indole-3-carbonyl]-guanidine trifluoroacetate], for which the IC50 in series [1] worked out at 250 nM.
The compound `Cl.N=C(N)NC(=O)c1cn(-c2ccnc3c(C(F)(F)F)cccc23)c2ccccc12` [Example 4, 3-Guanidinocarbonyl-1-(8-(trifluoromethyl)quinol-4-yl)-1H-indole hydrochloride] gave a melting point of 212 °C. In series [1], the half-maximal inhibitory concentration (IC50) worked out at 1470 nM.
